The values below come from US5922557A, “System for stably expressing a high-affinity camp phosphodiesterase and use thereof” (Merck & Co., Inc., priority 1998, dated 1999).

One may read the EC50 as the concentration that produces a half-maximal response. The IC50 is the concentration that inhibits the measured activity by half.

Structures are written as SMILES. “Also recorded” adds a separate entry of the source. Read-outs that look alike come from different tables or passages of the source.

In series [1] the test system is PKA in CHO-K1 cells stably expressing PDE IVa. Nature of the series: Whole-cell cAMP dependent protein kinase (PKA) activity ratio. It counts as cell-based. Conditions: with 1 μM PGI2, read-out: apparent EC50 to activate PKA. As to the method: PKA activity ratios were determined as the amount of ^32 P transferred to histone F2B in the presence and absence of cAMP as described in Materials and Methods. Data points represent the fractional PKA activation by incubating cells with the indicated concentrations of inhibitor and […]. Experiments were performed in triplicate. n=3 experiments±SD.
CHO-K1 cells were grown and resuspended as described above except that the Hank's buffer was replaced by a solution containing 0.25M sucrose; 10 mM Tris, pH 7.5; and 0.5 mM EDTA. The cells were preincubated and incubated with 1 μM PGI2 and the indicated compounds at room temperature as described above. The incubations were terminated by the addition of 0.05% Triton X-100 (final) and incubating the cells for 5 min on ice. […] This mixture (final volume 220 μl) was incubated in a waterbath for 30 min at 35° C. and terminated by adding 5 ml of ice cold 5% TCA. The precipatated protein was applied to a Whatman GF/B filter under vacuum and the filter was subsequently washed with 3×5 ml ice cold TCA solution. The amount of -32P incorporation was measured by placing the filters in Aquasol and counting in a BECKMAN LSC 5000. Basal cAMP independent protein kinase activity was determined by the inclusion of 1 μM Protein Kinase A Peptide Inhibitor (19) in the reaction mixture. Maximal cAMP protein kinase activity was determined in the presence of 10 μM cAMP. All determinations were performed in triplicate and activity ratios were calculated as the [(kinase activity in the presence of PDE inhibitor minus cAMP independent kinase activity)/(maximal cAMP kinase activity minus cAMP independent kinase activity)]×100.

For the next series, the system named is HL-60 cells. Nature of the series: Whole-cell cAMP elevation in HL-60 cells. It counts as cell-based. The note with it: vs RS 14203 and (R)-rolipram; data not presented.
Series [2] has as its system FLAG PDE IVAmet330.
Experimental: (§1) CHO-K1 cells were lysed by sonication for 10 secs at a power setting of 50% (BRAUNSONIC Model 2000) in an ice cold solution containing 50 mM Tris, pH 7.5; 1 mM EDTA; and 200 μM mercaptoethanol. The soluble and particulate fractions of the cell were obtained by centrifuging the sonicate for 90 min at 100,000×g at 4° C. PDE activity was measured in a solution containing 50 mM Tris, pH 7.5; 10 mM MgCl2 ; 1 mM EDTA; and 100 nM (or indicated) 3H-cAMP (100 ml final volume) in the presence of varying concentrations of inhibitor. The reaction mixture containing enzyme was incubated for 10 min at 30° C. in 96-well View Plates (PACKARD), and terminated by the addition of 50 μl Phosphodiesterase Scintillation Proximity Assay (SPA) Beads ([sequence]) containing 18 mM ZnSO4. The amount of 3H-cAMP hydrolysis was determined by counting the plates in a WALLAC 1450 μBeta LSC counter.
(§2) CHO-K1 cells stably expressing epitope FLAG PDE IV constructs were lysed by sonication for 10 secs at a power setting of 50% (Braunsonic Model 2000) in an ice cold solution containing 50 mM Tris, pH 7.5; 1 mM EDTA; protease inhibitor cocktail (Boehringer, Montreal, QUE). The soluble and particulate fractions of the cell were obtained by centrifuging the sonicate for 90 min at 100,000×g at 40° C.
Series [3] relates to eosinophils from guinea pigs. In words: Whole-cell cAMP elevation in guinea pig eosinophils. The format is cell-based. The note with it: vs RS 14203 and (R)-rolipram; data not presented.
Series [4] concerns CHO-K1 cells stably expressing rhPDE IVa. Nature of the series: cells. The format is cell-based. As to the method: Levels of cAMP were measured in CHO-K1 cells stably expressing PDE IVa enzyme as outlined in Materials and Methods.
CHO-K1 cells were plated at a density of 10^6 cells/175 cm^2 containing complete media with 500 μg/ml hygromycin. The flasks were maintained in an incubator at 37° C. with 5.0% CO2 for 72 hr. The media was changed and the cells were allowed to grow overnight. The cells were washed and dissociated from the plate with PBS containing 0.5 mM EDTA. Cellular cAMP content was measured by centrifuging the cell suspension at 150 g×10 min and resuspending the cells in a Hanks buffered salt solution at a density of 0.2×10^6 cells/ml. The cells were preincubated at room temperature for 15 min and then incubated with 10 μM prostaglandin I2 (PGI2) and the indicated compound for an additional 10 min. Basal cAMP levels were determined by incubating the cells in 0.1% DMSO. The incubations were terminated by the addition of HCl (0.1N final) and the cells measured for cAMP.
Determinations of whole-cell cAMP content were performed by incubating 100 μl reconstituted rabbit anti-succinyl cAMP serum with 100 μl of the whole-cell reaction or known cAMP standard and 30 pmol of 125I-cAMP TME in a […]™ well (300 μl final volume) at room temperature for 18 h. Total cpm (Bo) was determined in the absence of sample or cAMP standard. The reaction mixture was then aspirated out of the well, and individual wells were counted in a BECKMAN LS 6000SC with the window open from 10-999 for 1 min. The data were expressed as %B/Bo=[(standard or sample cpm--non-specific cpm)/(Bo cpm-non-specific cpm)]×100. Non-specific cpm were determined by incubating only the 125I-cAMP TME with assay buffer (50 mM acetate; pH 5.8) in the ScintiStrip™ well. All determinations were performed in triplicate.

The next series relates to human neutrophils. In words: Whole-cell cAMP elevation in human neutrophils. It counts as cell-based. Conditions: vs RS 14203 and (R)-rolipram; data not presented.
Another series concerns U937 cells. In words: Whole-cell cAMP elevation in U937 cells. The format is cell-based, human. The note with it: vs RS 14203 and (R)-rolipram; data not presented.
The target of series [5] is T1, recombinant full-length human PDE IVa (rhPDEIVa) (Homo sapiens, UniProt P27815, M723I).
T1 construct: a cDNA insert encoding for a full-length human PDE IVa enzyme; made in house; host or cells: CHO-K1 cells, stably transfected (also expressing the prostanoid IP receptor); 100,000xg supernatant of the sonicate
Nature of the series: Phosphodiesterase Scintillation Proximity Assay, inhibition of soluble rhPDE IVa (100,000×g supernatant of transfected CHO-K1 cells). It counts as biochemical. How it is done:
Inhibition of soluble rhPDEIVa by specific inhibitors was examined at 100 nM substrate. Enzyme activity was determined as described in Materials and Methods using the Amersham SPA beads that specifically bind 5'AMP.
Inhibition of soluble rhPDEIVa by specific inhibitors was examined in the presence of 5 mM to 100 mM MgCl2. Enzyme activity was determined as described in Materials and Methods using the Amersham SPA beads that specifically bind 5'AMP in the presence of […] cAMP substrate.

Series [6] deals with T2, FLAG PDE IVA (Homo sapiens, UniProt P27815, M723I).
Experimental: Each point represents the mean of 3 separate experiments performed in duplicate±SEM. […] Each point represents the average of 3 separate experiments.
CHO-K1 cells stably expressing epitope FLAG PDE IV constructs were lysed by sonication for 10 secs at a power setting of 50% (Braunsonic Model 2000) in an ice cold solution containing 50 mM Tris, pH 7.5; 1 mM EDTA; protease inhibitor cocktail (Boehringer, Montreal, QUE). The soluble and particulate fractions of the cell were obtained by centrifuging the sonicate for 90 min at 100,000×g at 40° C. Twenty-five ml. […] The affinity matrix was washed with column buffer until all unbound protein was eluted from the column as determined with a UV-2 flow cell. Bound material was eluted with column buffer containing 0.5 mg/ml. FLAG peptide at a flow rate of 2 ml/min.
The filters were quickly washed with an ice-cold solution of 50 mM Tris; pH 7.5.
The subject of another series is HSA. Nature of the series: [3H](R)-rolipram binding to HSA. Set-up: species or system human. Conditions: presence or absence of 150 mM KCl.
The target in series [7] is T3, FLAG PDE IVAmet330 (Homo sapiens, UniProt P27815, M723I). The format is binding. Also noted: made in house. The note with it: 0.2 to 100 nM [^3 H](R)-rolipram.
Target sequence in this assay (P27815 332-886 M723I): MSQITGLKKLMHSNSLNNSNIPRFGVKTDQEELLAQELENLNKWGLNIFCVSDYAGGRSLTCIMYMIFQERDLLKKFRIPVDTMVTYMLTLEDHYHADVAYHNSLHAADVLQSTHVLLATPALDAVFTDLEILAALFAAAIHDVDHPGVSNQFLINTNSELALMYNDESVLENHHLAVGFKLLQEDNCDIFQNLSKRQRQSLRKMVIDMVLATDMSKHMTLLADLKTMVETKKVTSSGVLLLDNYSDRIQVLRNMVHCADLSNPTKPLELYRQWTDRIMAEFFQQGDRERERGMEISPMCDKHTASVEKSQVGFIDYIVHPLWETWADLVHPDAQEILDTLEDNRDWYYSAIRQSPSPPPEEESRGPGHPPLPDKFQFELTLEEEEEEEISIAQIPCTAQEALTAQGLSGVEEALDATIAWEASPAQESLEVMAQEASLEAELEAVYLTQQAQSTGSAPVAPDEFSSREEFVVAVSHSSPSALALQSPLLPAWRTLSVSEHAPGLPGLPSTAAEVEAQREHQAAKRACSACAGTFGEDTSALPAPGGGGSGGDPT
Experimental: CHO-K1 cells stably expressing epitope FLAG PDE IV constructs were lysed by sonication for 10 secs at a power setting of 50% (Braunsonic Model 2000) in an ice cold solution containing 50 mM Tris, pH 7.5; 1 mM EDTA; protease inhibitor cocktail (Boehringer, Montreal, QUE). The soluble and particulate fractions of the cell were obtained by centrifuging the sonicate for 90 min at 100,000×g at 40° C. […] The affinity matrix was washed with column buffer until all unbound protein was eluted from the column as determined with a UV-2 flow cell. Bound material was eluted with column buffer containing 0.5 mg/ml. FLAG peptide at a flow rate of 2 ml/min.
(§3) The filters were quickly washed with an ice-cold solution of 50 mM Tris; pH 7.5. […] Non-specific binding amounted to less than 5% of the total measured binding activity.
Another series concerns the target rhPDE IVa (Homo sapiens, UniProt P27815, M723I).
Another series relates to cAMP PDE. Conditions: membraneous and cytosolic fractions, rat brain; cited from earlier work.
Series [8] relates to constitutive phosphodiesterase of control cells (VH2). Nature of the series: Constitutive phosphodiesterase activity in control cells (VH2). The format is biochemical. The note with it: control cells (VH2) in selection media.
Experimental: as §1
The test system of a further series is PDE IVh6.1. The note with it: PDE IVh6.1 in S. cerevisiae or COS-1 cells; cited from earlier work.
The subject of another series is patients. Conditions: clinic; cited from earlier work.
The subject of series [9] is full-length PDE Iva / HPDE IV. The note with it: cited from earlier work.
Series [10] has as its system catalytic portion of PDE IV. The note with it: UCR1 and UCR2 deleted; cited from earlier work.
The test system of series [11] is high-affinity rolipram binding site, rat forebrain membranes. Conditions: cited from earlier work.
The target of series [12] is T3, FLAG PDE IVAmet330. Conditions: KCl and/or HSA.
Target sequence in this assay (P27815 332-886 M723I limits assumed): as the sequence (P27815 332-886 M723I) above
Experimental: as §1, §2
Series [13] concerns the target T2, FLAG PDE IVA. Conditions: 150 mM KCl with 3 mg/ml HSA vs HSA alone. As to the method: PDE activity was measured in a solution containing 50 mM Tris, pH 7.5; 10 mM MgCl2; 1 mM EDTA; and 100 nM (or indicated) 3H-cAMP ([…] final volume) in the presence of varying concentrations of inhibitor. The reaction mixture containing enzyme was incubated for 10 min at 30° C. in 96-well View Plates (PACKARD), and terminated by the addition of 50 μl Phosphodiesterase Scintillation Proximity Assay (SPA) Beads ([…]) containing 18 mM ZnSO4. The amount of 3H-cAMP hydrolysis was determined by counting the plates in a WALLAC 1450 μBeta LSC counter.

In series [14] the test system is catalytic portion of PDE IV. Conditions: UCR1 and UCR2 deleted; cited from earlier work. This is another data set of the same source.
The subject of series [15] is PDE IVA enzyme and various deletion mutants. The note with it: cited from earlier work.

Sequence of rhPDE IVa (P27815 whole entry M723I): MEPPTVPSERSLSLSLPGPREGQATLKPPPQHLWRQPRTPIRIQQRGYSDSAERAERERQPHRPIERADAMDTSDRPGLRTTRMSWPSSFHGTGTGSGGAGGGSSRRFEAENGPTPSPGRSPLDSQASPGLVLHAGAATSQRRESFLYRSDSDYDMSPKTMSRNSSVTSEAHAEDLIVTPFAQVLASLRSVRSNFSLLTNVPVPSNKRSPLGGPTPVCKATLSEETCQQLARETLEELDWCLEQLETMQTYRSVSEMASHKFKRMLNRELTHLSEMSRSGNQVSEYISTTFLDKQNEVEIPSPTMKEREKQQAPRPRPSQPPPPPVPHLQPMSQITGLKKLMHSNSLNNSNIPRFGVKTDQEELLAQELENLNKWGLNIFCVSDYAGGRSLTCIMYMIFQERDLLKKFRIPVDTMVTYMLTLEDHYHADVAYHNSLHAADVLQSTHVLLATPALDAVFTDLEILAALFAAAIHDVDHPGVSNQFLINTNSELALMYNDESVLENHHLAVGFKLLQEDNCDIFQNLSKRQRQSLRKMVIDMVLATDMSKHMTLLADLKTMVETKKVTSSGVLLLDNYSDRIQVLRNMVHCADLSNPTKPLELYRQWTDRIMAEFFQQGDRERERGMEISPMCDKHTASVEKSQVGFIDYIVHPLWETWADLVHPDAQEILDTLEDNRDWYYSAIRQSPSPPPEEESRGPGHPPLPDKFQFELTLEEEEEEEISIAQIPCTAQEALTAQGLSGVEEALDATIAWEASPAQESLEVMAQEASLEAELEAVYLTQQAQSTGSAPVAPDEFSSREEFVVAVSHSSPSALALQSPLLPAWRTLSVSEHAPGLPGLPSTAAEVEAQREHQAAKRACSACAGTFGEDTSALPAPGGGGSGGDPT
T1 sequence (P27815 whole entry M723I): as above
T2 sequence (P27815 whole entry M723I): as above
Experimental for HSA: as §3

On to `COc1ccc([C@H](Cc2ccncc2)c2ccccc2)cc1OC1CCCC1` [CDP 840], for which, in [1], the EC50 was found to be 319 nM. Besides, the “relative potency at elevating whole-cell cAMP” value in the series with HL-60 cells is “consistently less potent than RS 14203 and (R)-rolipram”; in series [3], “consistently less potent than RS 14203 and (R)-rolipram”; in the series with human neutrophils, “consistently less potent than RS 14203 and (R)-rolipram”; in the series with U937 cells, “consistently less potent than RS 14203 and (R)-rolipram”. For the same compound, the “discrimination between high- and low-affinity states of the enzyme” value in the series on FLAG PDE IVAmet330 [2] (truncated vs full-length enzyme) is listed as “do not discriminate between the two affinity states of the enzyme”. Also, in series [4] (with PGI2), the “relative potency / response in elevating whole-cell cAMP” value is “least potent of the compounds tested, and a maximal "plateau" response was not obtained”. Besides, in series [5], the “effect of increased salt / ionic strength on inhibitory potency (IC50)” value is recorded as “not substantially affected; also recorded: not appreciably affected; also recorded: not affected by an increase of ionic strength; also recorded: not affected by the increases in assay buffer ionic strength”. Further, the “relative potency against recombinant full-length PDE IVa enzyme” value in series [5] is “as potent as RS 14203 and more potent than (R)-rolipram”. Besides, the IC50 in [5] (read-out: IC50 for inhibition of soluble PDE IVa activity) worked out at 9 nM.

Take `COc1ccc([C@@H]2CNC(=O)C2)cc1OC1CCCC1` [[^3 H](R)-rolipram]: the Stochiometry is 0.02 (0.0) fmol [^3 H](R)-Rolipram/fmol P on FLAG PDE IVA [6] (0 mM KCl), 0.10 (0.03) fmol [^3 H](R)-Rolipram/fmol P on FLAG PDE IVA [6] (0 mM KCl + 3 mg/ml HSA), 0.04 (0.01) fmol [^3 H](R)-Rolipram/fmol P at FLAG PDE IVA [6] (150 mM KCl) and 0.15 (0.03) fmol [^3 H](R)-Rolipram/fmol P at FLAG PDE IVA [6] (150 mM KCl + 3 mg/ml HSA). Further, the Bmax was 150 (47) fmol [^3 H](R)-rolipram at FLAG PDE IVA [6] (0 mM KCl + 3 mg/ml HSA); 150±47 fmol/1.6 pmol enzyme on FLAG PDE IVA [6] (3 mg/ml HSA); 63 (16) fmol [^3 H](R)-rolipram on FLAG PDE IVA [6] (150 mM KCl); 63±16 fmol/1.6 pmol enzyme at FLAG PDE IVA [6] (150 mM KCl (text)); 240 (37) fmol [^3 H](R)-rolipram on FLAG PDE IVA [6] (150 mM KCl + 3 mg/ml HSA); 240 fmol/1.6 pmol purified enzyme at FLAG PDE IVA [6] (150 mM KCl + 3 mg/ml HSA (text)). In addition, the figures for the Bmax on rhPDE IVa (150 mM KCl) and at rhPDE IVa (absence of added KCl) were 0.47 pmol/20 μg prot and 0.16 pmol/20 μg prot, respectively. The “increase in Bmax” value at FLAG PDE IVA [6] (3 mg/ml HSA) is recorded as 5 fold. Further, in the series on HSA, the “specific binding to HSA” value is “No specific binding”. The “saturable high-affinity binding to truncated enzyme” value on FLAG PDE IVAmet330 [7] was “did not exhibit any saturable binding; also recorded: does not display any saturable high-affinity [^3 H](R)-rolipram binding”. Moreover, the “Hill coefficient of binding” value at rhPDE IVa (300 mM KCl) was 2.

For the compound `COc1ccc(C2CNC(=O)C2)cc1OC1CCCC1` (racemic) [rolipram], the “concentrations inhibiting cAMP PDE activity” value in the series on cAMP PDE was “micromolar concentrations”. Further, the “rolipram-sensitivity of constitutive phosphodiesterase activity” value in series [8] is on record as “did not exhibit any rolipram-sensitivity”. Also, in the series with PDE IVh6.1, the “inhibitory kinetics with respect to substrate” value is listed as “simple competitive inhibitor”. Further, in the series on patients, the nausea in patients entry is recorded as “profound episodes of nausea in patients” and the therapeutic window result is recorded as “extremely narrow therapeutic window”. In addition, the “inhibitory kinetics with respect to full-length PDE Iva” value in [9] (rolipram (racemic)) was “Mixed inhibitory kinetics”. Also, in the series on FLAG PDE IVAmet330 [2] (truncated, catalytically active enzyme), the “sensitivity of truncated PDE IVa to inhibition” value is reported as “low sensitivity to inhibition by rolipram”. Further, in series [10], the “saturable high-affinity rolipram binding” value is given as “no detectable saturable high-affinity rolipram binding”. The “difference between measured Kd (binding) and IC50 (enzymatic)” value in [11] is listed as greater than 1000 fold. For the same compound, the “saturable high-affinity binding to truncated enzyme” value on FLAG PDE IVAmet330 [7] is listed as “fails to bind rolipram with high-affinity”.

In the case of `COc1ccc([C@@H]2CNC(=O)C2)cc1OC1CCCC1` [(R)-rolipram], the EC50 in series [1] (CHO-K1) came out at 168 nM. Also, in series [9], the “Hill co-effecient for inhibition of HPDE IV catalytic activity” value is recorded as 0.43. For the same compound, at FLAG PDE IVAmet330 [12], the “effect of assay conditions on sensitivity of FLAG PDE IVAmet330 to (R)-rolipram” value is listed as “unaffected”. Also, on FLAG PDE IVA [13], the “additional increase in enzyme sensitivity to (R)-rolipram” value amounted to 3 fold. Further, the “concentration required for inhibition of catalytic portion” value in [14] is “at least a micromolar concentration”. In addition, the EC50 in series [4] (CHO-K1, with 10 μM PGI2 (b116 prints 10 FM), read-out: EC50 for elevating cellular cAMP) was found to be 486 nM. For the same compound, in [5], the “effect of assay solution osmolality on rolipram sensitivity of the enzyme” value is on record as “no effect upon the rolipram sensitivity of the enzyme” and the “inhibition of cAMP hydrolytic activity in the stable clones” value is “completely inhibitable”.

Regarding `COc1ccc(C(=O)Nc2c(Cl)cncc2Cl)cc1OC1CCCC1` [RP 73401], the “class of binding sites” value in series [15] is “single class of high-affinity binding sites”.
